Tests used:
[1] = test system: BV-2 murine microglial cells; assay: RT-PCR expression of inflammatory mediators in LPS-activated BV-2 cells; assay type: cell-based
Method: BV-2 cells were treated with 13 or ANR 94 (10 nM) and activated with 100 ng/mL LPS for 24 h. Total RNA was isolated, and proinflammatory cytokine and enzyme expressions were measured using RT-PCR (Figure 5).
Cell Cultures and Treatments: BV-2 murine microglial cells (a gift from Prof. Elisabetta Blasi of the University of Modena and Reggio Emilia, Modena, Italy) were maintained at 37 °C and 5% CO2 in a humidified incubator and grown in DMEM supplemented with 10% (v/v) low-endotoxin fetal bovine serum (Euroclone—Milan, Italy), 2 mM L-glutamine, 50 U/mL penicillin, and 50 μg/mL streptomycin (Sigma-Aldrich–Merck, Milan, Italy). Cells were seeded at 50,000 cells/mL in 96-well tissue culture plates for the viability assay, in 6-well tissue culture plates for the Griess assay and RT-PCR assay. BV-2 cells were treated for 24 h with ANR 94 or 13 at different concentrations and then exposed to LPS (100 ng/mL; Sigma-Aldrich–Merck) for a further 24 h.
Real-Time Polymerase Chain Reaction (PCR): At the end of the experiments, total RNA was extracted by BV-2 cells using RNeasy Mini Kit (QIAGEN GmbH, Hilden, Germany). RNA concentraion and quality were measured on a NanoVue Spectrophotometer (GE Healthcare, Milano, Italy). iScript cDNA Synthesis Kit (Bio-Rad, Hercules, CA, USA) was used to synthesize cDNA starting from the extracted RNA, following the supplier’s instructions. PCR was performed by adding 2.5 μL (12.5 ng) of cDNA, 5 μL SsoAdvanced Universal SYBR Green Supermix (Bio-Rad), and 0.5 μL (500 nM) of each primer (Table 2) to a PCR tube. cDNA amplification was started at 95 °C for 30 s to activate the polymerase, followed by 40 cycles of 5 s at 95 °C and 30 s at 60 °C. Normalized expression levels were calculated relative to the control cells according to the 2^−ΔΔCT method.

A2BAR = biological target: T1, A2BAR (Homo sapiens, UniProt P29275); assay: Functional study at A2BAR (GloSensor cAMP assay; inhibition of NECA-stimulated adenylyl cyclase activity); assay type: cell-based; details: Ki calculated from IC50 of inhibition of NECA-stimulated adenylyl cyclase activity, CHO cells
T1 construct: expressed in transfected cells
T1 sequence (P29275 1-332): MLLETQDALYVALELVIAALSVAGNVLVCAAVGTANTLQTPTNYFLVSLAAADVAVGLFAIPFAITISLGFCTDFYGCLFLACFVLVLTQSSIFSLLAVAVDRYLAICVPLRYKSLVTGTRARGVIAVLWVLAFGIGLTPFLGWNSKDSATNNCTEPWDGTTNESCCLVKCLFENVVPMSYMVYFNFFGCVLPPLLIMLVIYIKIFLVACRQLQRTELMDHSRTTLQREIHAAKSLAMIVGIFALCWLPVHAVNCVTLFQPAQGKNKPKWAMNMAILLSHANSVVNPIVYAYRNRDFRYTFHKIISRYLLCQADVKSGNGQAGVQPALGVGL
Method: The affinities of the newly synthesized compounds 7–13 and 17–21 were determined in binding studies at human recombinant A1, A2A, and A3 ARs, stably transfected in Chinese hamster ovary (CHO) cells, using [^3H]CCPA (2-chloro-N^6-cyclopentylAdo), [^3H]NECA (5′-N-ethylcarboxamidoAdo), and [^3H]HEMADO (2-hexynyl-N^6-methylAdo) as respective radioligands. Most of the compounds were also evaluated at A2BARs in a functional study using the GloSensor cAMP assay. The results are reported in Table 1 as Ki values in nM (± standard errors). In the case of A2BARs, Ki-values were calculated from IC50-values determined by the inhibition of NECA-stimulated adenylyl cyclase activity.

human recombinant A2AAR = biological target: T2, human recombinant A2AAR (Homo sapiens, UniProt P29274); assay: Radioligand binding at human A2AAR ([3H]NECA displacement, CHO cell membranes)
T2 construct: expressed in transfected cells; membrane preparation
T2 sequence (P29274 whole entry): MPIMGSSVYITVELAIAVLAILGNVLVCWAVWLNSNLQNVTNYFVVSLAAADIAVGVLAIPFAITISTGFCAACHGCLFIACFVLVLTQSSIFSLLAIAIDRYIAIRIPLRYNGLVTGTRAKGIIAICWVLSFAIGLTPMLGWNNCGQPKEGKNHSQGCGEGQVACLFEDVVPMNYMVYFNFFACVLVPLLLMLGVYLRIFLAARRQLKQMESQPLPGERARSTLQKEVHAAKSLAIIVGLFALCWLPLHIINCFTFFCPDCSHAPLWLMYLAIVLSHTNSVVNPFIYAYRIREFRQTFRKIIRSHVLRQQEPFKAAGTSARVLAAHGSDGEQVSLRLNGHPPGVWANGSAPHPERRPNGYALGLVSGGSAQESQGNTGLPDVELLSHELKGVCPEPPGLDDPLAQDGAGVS
Method: Most of the compounds were also evaluated at A2BARs in a functional study using the GloSensor cAMP assay. […] In the case of A2BARs, Ki-values were calculated from IC50-values determined by the inhibition of NECA-stimulated adenylyl cyclase activity.
Preparation of membranes: Cell membranes for binding assays were prepared mechanically detaching the cells from the petri and suspending them in a cold hypotonic buffer (5 mM Tris/HCl, 2 mM EDTA, pH 7.4). The cell suspension was homogenized (Ultra-Turrax, 2 × 15 s at maximum speed) and the homogenate centrifuged for 10 min (4 °C) to 1000× g. […] The amount of the protein suspension was determined according to the […] using the BCA Protein Assay Kit (Pierce), frozen in liquid nitrogen, and stored at −80 °C.
Binding assays: The dissociation constants of the radioligand (KD) were calculated through saturation assays, while the dissociation constants of the compounds under study (Ki) were determined by competition experiments. All binding data were calculated by nonlinear regression curves using the software GraphPad Prism 5 (GraphPad Software, San Diego, CA, USA). The increasing concentrations of the radioligand saturation binding ([^3H]-CCPA for the A1 receptor subtype, [^3H]-NECA for the A2A receptor subtype, and [^3H]-HEMADO for the A3 receptor) subtype were incubated in a total volume of 250 μL containing 0.2 U/mL of Ado deaminase (ADA) and 12 micrograms of membrane proteins in the specific buffer. In competition experiments for the A1 receptor subtype, each compound was added at increasing concentrations, to the well containing 1 nM of [^3H]-CCPA, to a final volume of 200 μL. The samples were left to incubate for 3 h at room temperature, filtered in a filter 96-well plate (UniFilter GF/C, Perkin-Elmer Life and Analytical Science, Boston, MA) using the FilterMate Cell Harvester (Perkin-Elmer), and washed 3 times with cold distilled water. After drying the filter plate at 40 °C for 30′, they 20 μL of scintillating liquid (Microscint-20, Perkin-Elmer) was added to each well, and then the radioactivity was quantized with the MicroBeta2 Plate Counter (Perkin-Elmer). The conditions for binding experiments at A2A and A3 receptor subtypes were essentially the same as for the A1AR using [^3H]-NECA (N-ethylcarboxyamideAdo) at a concentration of 10 nM and [^3H]-HEMADO (2-(1-hexyne)-N^6-methylAdo) at a concentration of 1 nM as radioligands, respectively. The samples were incubated with 12 micrograms of protein for 3 h at room temperature and filtered as described above.
The non-specific binding was determined in the presence of 1 mM theophylline for the A1AR, or 100 µM R-PIA (N^6-(1-methyl-2-phenylethyl)Ado) for the A2A and A3 receptors.

[2] = 10 nM for 24 h, then 100 ng/mL LPS 24 h

Question: With `CCn1c(-c2ccco2)nc2c(N)nc(NCCc3ccc(O)cc3)nc21` [compound 13, 4-(2-((6-Amino-9-ethyl-8-(furan-2-yl)-9H-purin-2-yl)amino)ethyl)phenol] as the compound, how does the “IL-10 mRNA expression” value ([1]; 10 nM before 100 ng/mL LPS 24 h) read?
Answer: maintained IL-10 expression to a level comparable to the control cells

Question: What about the “COX-2 mRNA expression vs LPS” value [1, 2] of the same compound?
Answer: significantly reduced the expression

Question: What about the “IL-1β mRNA expression vs LPS” value [1, 2] of the same compound?
Answer: significantly reduced the expression

Question: And the “IL-6 mRNA expression vs LPS” value [1, 2]?
Answer: significantly reduced the expression

Question: And the “iNOS mRNA expression vs LPS” value [1, 2]?
Answer: significantly reduced the expression

Question: What about the “NLRP3 mRNA expression vs LPS” value ([1]; 10 nM pre-treatment, 100 ng/mL LPS 24 h) of the same compound?
Answer: significantly reduced

Question: What about the Ki (A2BAR) of the same compound?
Answer: 1430 nM

Question: What about the Ki (human recombinant A2AAR; displacement of [3H]NECA, CHO membranes, n = 3–5, means ± standard errors) of the same compound?
Answer: 1.8 nM

Question: What about the “selectivity A1/A2A” value (human recombinant A2AAR; ratio of Ki values) of the same compound?
Answer: 28

Question: And the “selectivity A2B/A2A” value (human recombinant A2AAR; ratio of Ki values)?
Answer: 796

Question: And the “selectivity A3/A2A” value (human recombinant A2AAR; ratio of Ki values)?
Answer: 7

From paper PMC9032385, “A2A Adenosine Receptor Antagonists: Are Triazolotriazine and Purine Scaffolds Interchangeable?” (Molecules, 2022)
